Assays:
Hep 3B cells = assay: Apoptosis/necrosis assay (flow cytometry), Hep 3B cells; format: cell-based, human; settings: 24 hours; SK1-I 10, 20, 40 μM; ozanimod 10, 20, 40 μM; ABC294640 10, 20, 40 μM; vs no-drug control
Protocol: (§1) Apoptosis/necrosis assays evaluating the effect of different concentrations of each of ozanimod, ABC294640 and SK1-I on the four human hepatocellular carcinoma cell lines, Hep G2, Hep 3B, Huh 7 and PLC-PRF5 were also performed.
(§2) The protocol used for the apoptosis assays was: • Plated cells in 6-well plates and incubated at 37° C. overnight. • Prepared […], 20 μM, and 40 μM. • SK1-I: 10 μM, 20 μM, and 40 μM. • Control: 0.2% DMSO. • Aspirated the medium from the 6-well plates and added test compound concentrations in media or 0.2% DMSO control in media. Incubated at 37° C. for 24 hours. • Collected and processed the cells following the flow cytometry protocol of the GFP Certified® Apoptosis/Necrosis detection kit from Enzo Life Sciences, Inc. (product no. ENZ-51002; Farmingdale, N.Y., USA).
(§3) FIGS. 5-16 present graphs plotting the data from these 24-hour apoptosis assays for the different concentrations of compounds and no-drug control for the various cell lines. Channel FL2 picks up the apoptosis signal and channel FL3 picks up the necrosis signal. Data points in Quadrant 3 (Q3) in the graphs corresponds to cells undergoing apoptosis (cells positive for the apoptosis detection reagent of the assay). Data points in Quadrant 2 (Q2) in the graphs corresponds to cells that are positive for the apoptosis detection reagent and positive for the necrosis detection reagent of the assay (indicative of late-stage apoptosis).

Hep G2 cells = assay: Apoptosis/necrosis assay (flow cytometry), Hep G2 cells; format: cell-based, human; settings: 24 hours; SK1-I 10, 20, 40 μM; ozanimod 10, 20, 40 μM; ABC294640 10, 20, 40 μM; vs no-drug control
Protocol: as §1, §2, §3

Huh7 cells = assay: Apoptosis/necrosis assay (flow cytometry), Huh7 cells; format: cell-based, human; settings: 24 hours; SK1-I 10, 20, 40 μM; ozanimod 5, 10, 20 μM; ABC294640 10, 20, 40 μM; vs no-drug control
Protocol: as §1
(§4) The protocol used for the apoptosis assays was: • Plated cells in 6-well plates and incubated at 37° C. overnight. • Prepared concentrations of test compound and control compound DMSO in media. • Ozanimod: 5 μM, 10 μM, and 20 μM. • ABC294640: 10 μM, 20 μM, and 40 μM. • SK1-I: 10 μM, 20 μM, and 40 μM. • Control: 0.2% DMSO. • Aspirated the medium from the 6-well plates and added test compound concentrations in media or 0.2% DMSO control in media. Incubated at 37° C. for 24 hours. • Collected and processed the cells following the flow cytometry protocol of the GFP Certified® Apoptosis/Necrosis detection kit from Enzo Life Sciences, Inc. (product no. ENZ-51002; Farmingdale, N.Y., USA).
as §3

PLC-PRF5 cells = assay: Apoptosis/necrosis assay (flow cytometry), PLC-PRF5 cells; format: cell-based, human; settings: 24 hours; SK1-I 10, 20, 40 μM; ozanimod 5, 10, 20 μM; ABC294640 10, 20, 40 μM; vs no-drug control
Protocol: as §1, §4, §3

[1] = test system: Jurkat cells (human T-cell leukemia cell line); assay: Apoptosis assay, Jurkat cells; format: cell-based; settings: SK1-I 10, 20 μM; ozanimod 5, 10 μM; vs no-drug control
Protocol: as §4
as §3, with “apoptosis). […]” for “apoptosis).”

[2] = test system: primary human hepatocytes; assay: Apoptosis/necrosis assay, normal primary human hepatocytes; format: cell-based; settings: 24 hours; SK1-I 10, 20, 40 μM; ozanimod 2.5, 5, 10 μM; normal (non-cancerous) cells
Protocol: In still further experiments, the effects of SK1-I and ozanimod on normal (non-cancerous) primary human hepatocytes were investigated. Fresh human hepatocytes in a 12-well plate (HUF12) were obtained from Triangle Research Labs (Durham, N.C., USA; part of Lonza Group) and handled according to the supplier's protocol. The shipping medium was aspirated from each well and replaced with 1 ml per well of warm Hepatocyte Maintenance Medium. The plate was then placed in a 5% CO2 incubator at 37° C. and the hepatocytes were allowed to acclimate overnight. The Hepatocyte Maintenance Medium was replaced before treatment with drug or no-drug control, and the hepatocytes were treated with 0 μM (no-drug control), 10 μM, 20 μM, or 40 μM SK1-I or 0 μM, 2.5 μM, 5 μM, or 10 μM ozanimod for 24 hours under incubation. The cells were then harvested and analyzed using the GFP Certified® Apoptosis/Necrosis detection kit. The results are shown in FIGS. 19A-D for SK1-I and FIGS. 20A-D for ozanimod as follows.

[3] = test system: human hepatocellular carcinoma cell lines Hep G2, Huh 7, and PLC-PRF5; assay: MTT cell viability assay (48 hours); format: cell-based; settings: Hep G2, Huh 7, PLC-PRF5
Protocol: The following MTT assay protocol was followed. • Prepared stock solutions: 50 mM ozanimod, 50 mM ABC294640, 10 mM SK1-I in DMSO. • Plated 20000 cells in 160 μl medium per well in 96-well plates for each cell line and incubated at 37° C. overnight. • Prepared compound serial dilutions: for ozanimod and ABC294640: dilute stock 50 mM 1:50 in medium to 1000 μM; for SK1-I, dilute stock 10 mM 1:50 in medium to […], them make serial 1:1.8 fold serial dilution to the titration. For negative control, diluted DMSO 1:50 to medium. • Added 40 μl negative control and serially titrated compounds to 160 μl of cells for each cell line. Performed in triplicate for each cell line. • Incubated at 37° C. for 72 hours. • Performed assay using Vybrant MTT Cell Proliferation Assay kit (V-13154) (Molecular Probes) from Thermo Fisher Scientific (Waltham, Mass. USA).
48-hour treatment MTT assays were also performed as follows.

| SMILES | induction of apoptosis in Hep 3B cells (Hep 3B cells) | induction of apoptosis in Hep G2 cells (Hep G2 cells) | induction of apoptosis in Huh7 cells (Huh7 cells) | induction of apoptosis in PLC-PRF5 cells (PLC-PRF5 cells) | induction of apoptosis in Jurkat cells [1] | induction of apoptosis of primary human hepatocytes [2] | killing of hepatocellular carcinoma cells (MTT), comparison with PF-543 [3] |
| --- | --- | --- | --- | --- | --- | --- | --- |
| O=C(NCc1ccncc1)C12CC3C[C@H](C1)CC(c1ccc(Cl)cc1)(C3)C2 [ABC294640, (7S)-3-(4-chlorophenyl)-N-(pyridin-4-ylmethyl)adamantane-1-carboxamide] | did not substantially induce apoptosis | failed to induce apoptosis | failed to induce apoptosis | did not substantially induce apoptosis |  |  |  |
| CC(C)Oc1ccc(-c2nc(-c3cccc4c3CC[C@@H]4NCCO)no2)cc1C#N [Ozanimod, 5-[3-[(1S)-1-(2-hydroxyethylamino)-2,3-dihydro-1H-inden-4-yl]-1,2,4-oxadiazol-5-yl]-2-propan-2-yloxybenzonitrile] | strongly induced apoptosis | strongly induced apoptosis | strongly induced apoptosis | strongly induced apoptosis | strongly induced apoptosis | did not induce apoptosis |  |
| CCCCCc1ccc(/C=C/[C@H](O)[C@@H](CO)NC)cc1 [SK1-I, (E,2R,3S)-2-(methylamino)-5-(4-pentylphenyl)pent-4-ene-1,3-diol] | strongly induced apoptosis | strongly induced apoptosis | strongly induced apoptosis | strongly induced apoptosis | strongly induced apoptosis | did not induce apoptosis | more effective at killing hepatocellular carcinoma cells than PF-543 |

— US10646459B2, “Sphingosine pathway modulating compounds for the treatment of cancers” (Enzo Biochem, Inc., priority 2017, dated 2020)
